Here are results for 21 substances from patent US11214803B2, “Modulators of YAP1 expression” (Ionis Pharmaceuticals, Inc., priority 2019, dated 2022).

Strand notation (5' to 3'): a small letter for the sugar, then the base; units joined by * are phosphorothioate-linked, units joined directly phosphodiester-linked; [ ] holds rarer units or linkages, { } end groups; capitals alone tell only the bases. e = 2'-O-(2-methoxyethyl) (MOE); k = constrained ethyl (cEt); [5mC] = 5-methylcytosine; d = 2'-deoxy (DNA); m = 2'-O-methyl

The data set has as its system Yap1 mRNA. Description: Antisense inhibition of human Yap1 in SNU-449 cells by modified oligonucleotides, single dose (Example 5, RTS36584). It counts as cell-based. How it is done: Modified oligonucleotides with additional chemistry modifications were designed to target a Yap1 nucleic acid and were tested for their effect on Yap1 mRNA level in SNU-449 cells. The modified oligonucleotides were tested in a series of experiments that had similar culture conditions. Cultured SNU-449 cells at a density of 10,000 cells per well were treated using free uptake with 2,000 nM of modified oligonucleotide. After a treatment period of approximately 48 hours, RNA was isolated from the cells and Yap1 mRNA levels were measured by quantitative real-time RTPCR. Human primer probe set RTS36584 was used to measure mRNA levels. Yap1 mRNA levels were normalized to total RNA content, as measured by RIBOGREEN®. Results are presented in the tables below as percent control of the amount of Yap1 mRNA relative to untreated control cells (% UTC). The modified oligonucleotides with percent control values marked with an asterisk (*) target the amplicon region of the primer probe set. Additional assays may be used to measure the potency and efficacy of the modified oligonucleotides targeting the amplicon region.
Several different chemistry modifications were tested, which are specified in the Chemistry Notation column of the tables below, wherein the notation “d” refers to a 2′-deoxyribose sugar, the notation “s” refers to a phosphorothioate (P═S) internucleoside linkage, the notation “k” refers to a cEt modified sugar, the notation “y” refers to a 2′-O-methyl ribose sugar, the notation “e” refers to a MOE modified sugar, and the notation “^mC” refers to a 5-methylcytosine.
“Start site” indicates the 5′-most nucleoside to which the gapmer is targeted in the human gene sequence. “Stop site” indicates the 3′-most nucleoside to which the gapmer is targeted human gene sequence. […] Activity of the modified oligonucleotide may be defined in a different experiment.

Setting [1] is: Table 43 experiment, SNU-449 cells, 10,000 cells per well, free uptake, 2,000 nM, approximately 48 hours, RTS36584, Yap1 mRNA normalized to RIBOGREEN, relative to untreated control cells.
[2] abbreviates: Table 44 experiment, SNU-449 cells, 10,000 cells per well, free uptake, 2,000 nM, approximately 48 hours, RTS36584, Yap1 mRNA normalized to RIBOGREEN, relative to untreated control cells.
Setting [3] is: Table 49, Yap1 mRNA level relative to untreated control, modified oligonucleotides targeting SEQ ID NO.: 1 and 2.
Where [4] appears, read: Table 51, Yap1 mRNA remaining as percent of untreated control (UT), SNU-449 cells, single dose.
[5] abbreviates: Table 42 (separate experiment), SNU-449 cells, 10,000 cells per well, free uptake, 2,000 nM modified oligonucleotide, approximately 48 hours, RTS36584, normalized to RIBOGREEN, Yap1 mRNA relative to untreated control cells.
Where [6] appears, read: Table 50, Yap1 mRNA remaining as percent of untreated control (UT), SNU-449 cells, single dose.
Where [7] appears, read: Table 46, Yap1 mRNA as percent of untreated control, SNU-449 cells, single dose.

With “1095593 (antisense kT*kG*dA*dG*dG*dT*dA*dT*dA*dA*d[5mC]*eT*eG*eG*kG*k[5mC]) [Compound 1095593]”, under setting [1], the “YAP1 (% UTC)” value came out at 16 % UTC.

For the substance “1198259 (kA*kA*dT*dA*dT*dT*dG*d[5mC]*dA*dA*dT*e[5mC]*eT*eG*kT*k[5mC]; antisense) [Compound 1198259]”, under setting [1], the “YAP1 (% UTC)” value turned out to be 51 % UTC. Regarding “1198492 (antisense kG*k[5mC]*dT*dT*dT*dG*dG*dA*dA*dG*dA*eT*k[5mC]*eT*kG*eA) [Compound 1198492]”, the “YAP1 (% UTC)” value under setting [2] turned out to be 15 % UTC.

Take “1198963 (kT*kT*dA*dA*dA*dG*dT*dG*dT*dA*dT*kG*dT*k[5mC]*dA*kG; antisense) [Compound 1198963]”: the “YAP1 (% UTC)” value (Table 45, Yap1 mRNA as percent of untreated control, SNU-449 cells, single dose) was 27 % UTC. As for “1198576 (antisense kT*kT*kT*dG*dG*dA*dA*dG*dA*dT*d[5mC]*dT*kG*kA*kA*eA) [Compound 1198576]”, the “YAP1 (% UT)” value under setting [3] is 92 % UT. Take “1197303 (k[5mC]*kT*kT*dA*mU*dA*dT*dG*dG*dT*dT*dT*dT*kG*kT*kG; antisense) [Compound 1197303]”: the “YAP1 (% UT)” value under setting [4] was 72 % UT. Consider “1198375 (kG*dG*dA*dA*dA*dT*dT*dG*dT*d[5mC]*dT*k[5mC]*eA*kT*eG*k[5mC]; antisense) [Compound 1198375]”, for which the “YAP1 (% UTC)” value (Table 39, SNU-449 cells, 10,000 cells per well, free uptake, 2,000 nM oligonucleotide, approx. 48 hours, RTS36584, normalized to RIBOGREEN, Yap1 mRNA relative to untreated control) was found to be 22 % UTC. Consider “1198698 (antisense kA*kA*dG*dT*dG*dT*dA*dT*dG*dT*d[5mC]*dA*kG*eA*kA*eG) [Compound 1198698]”, for which, under setting [5], the “YAP1 (% UTC)” value is listed as 12 % UTC. Consider “1198304 (kA*kG*kG*dT*dA*dT*dA*dA*d[5mC]*dT*dG*dG*kG*e[5mC]*kA*eA; antisense) [Compound 1198304]”, for which the “YAP1 (% UT)” value under setting [3] stood at 33 % UT. In the case of “1198608 (antisense kT*kA*kT*dG*dT*dA*dA*dT*dA*dT*dT*dG*k[5mC]*kA*kA*eT) [Compound 1198608]”, the “YAP1 (% UT)” value under setting [6] came to 83 % UT. With “1198577 (antisense k[5mC]*kT*kT*dT*dG*dG*dA*dA*dG*dA*dT*d[5mC]*kT*kG*kA*eA) [Compound 1198577]”, under setting [3], the “YAP1 (% UT)” value is listed as 40 % UT.

Turning to “1198212 (kT*kA*dT*dT*dA*dG*dA*dG*dT*dA*dT*eG*eT*eG*kG*k[5mC]; antisense) [Compound 1198212]”, the “YAP1 (% UTC)” value under setting [5] was 17 % UTC. Regarding “1198816 (antisense kT*kT*dA*dG*dA*dG*dT*dA*dT*dG*dT*kG*eG*k[5mC]*eA*kA) [Compound 1198816]”, the “YAP1 (% UT)” value under setting [7] worked out at 27 % UT.

On to “1198477 (antisense kG*kA*dG*dG*dT*dA*dT*dA*dA*d[5mC]*dT*eG*kG*eG*k[5mC]*eA) [Compound 1198477]”, for which, under setting [2], the “YAP1 (% UTC)” value is reported as 47 % UTC.

Turning to “1198819 (kA*kT*dA*dT*dT*dA*dG*dA*dG*dT*dA*kT*eG*kT*eG*kG; antisense) [Compound 1198819]”, the “YAP1 (% UT)” value under setting [7] is recorded as 44 % UT. In the case of “1200852 (kT*kG*kT*dA*dA*mU*dA*dT*dT*dG*d[5mC]*dA*dA*kT*k[5mC]*kT; antisense) [Compound 1200852]”, the “YAP1 (% UT)” value (Table 52, Yap1 mRNA, modified oligonucleotides targeting SEQ ID NO: 1 and 2) was 32 % UT.

With “1198588 (antisense kA*kG*kA*dT*dT*dT*dA*dG*dG*dA*dT*dG*k[5mC]*kA*kT*eG) [Compound 1198588]”, the “YAP1 (% UT)” value under setting [6] turned out to be 32 % UT. Consider “1197302 (k[5mC]*kA*kG*dA*mU*dT*dT*dA*dG*dG*dA*dT*dG*k[5mC]*kA*kT; antisense) [Compound 1197302]”, for which, under setting [4], the “YAP1 (% UT)” value is 54 % UT. As to “1198515 (kA*kT*dT*dG*d[5mC]*dA*dA*dT*d[5mC]*dT*dG*eT*k[5mC]*eT*kG*eA; antisense) [Compound 1198515]”, under setting [2], the “YAP1 (% UTC)” value was 44 % UTC. Turning to “1198573 (antisense kT*kT*kA*dA*dG*d[5mC]*dA*d[5mC]*dT*dT*dT*dT*kA*k[5mC]*kA*eT) [Compound 1198573]”, the “YAP1 (% UT)” value under setting [3] was 76 % UT. Regarding “1095463 (antisense kA*k[5mC]*dT*dG*dA*dG*dG*dT*dA*dT*dA*dA*k[5mC]*eT*kG*eG) [Compound 1095463]”, the “YAP1 (% UTC)” value under setting [5] is recorded as 37 % UTC.
